The values that follow come from patent US12465591B2, “Use of carbamate compound for preventing, alleviating or treating diabetic peripheral neuropathy or chemotherapy-induced peripheral neuropathy” (SK BIOPHARMACEUTICALS CO., LTD., priority 2018, dated 2025).

The test system of assay [1] is streptozotocin (STZ)-induced diabetic peripheral neuropathic pain rat model (mechanical allodynia). The assay is described as follows: von Frey test of mechanical allodynia in streptozotocin (STZ)-induced diabetic peripheral neuropathic pain rat model. In kind it is in vivo, rat (Sprague-Dawley). The conditions noted are these: for bending force before administration: day 24, immediately before that day's dose. The method, then:
(§1) Male rats (Sprague-Dawley, 160 to 180 g, Harlan Laboratories, Israel) were purchased and subjected to acclimatization for more than 1 week at an animal laboratory. The experimental animals were maintained at a light-and-darkness cycle of 12 hours, a temperature of 20 to 24° C., a relative humidity of 40 to 60%, and free access to water and food.
(§2) The degree of pain was assessed by withdrawal (avoidance response) using von Frey filaments. Mechanical stimuli were applied to the right hind paw by the use of an up-down method, and the lowest bending force showing avoidance response was defined as the paw withdrawal threshold (J Neurosci Methods, 1994; 53 (1): 55-63). First, the rats were placed in an acrylic box (13×25×13 cm^3) located on a wire mesh installed at a height of about 35 cm from the floor and stabilized for more than 20 minutes. Among von Frey filaments with various bending forces (0.008, 0.02, 0.04, 0.07, 0.16, 0.4, 0.6, 1.0, 1.4, 2.0, 4.0, 6.0, 8.0, 10.0, 15.0, 26.0, 60.0, 100, 180 and 300 g), the stimulus was started with 2.0 g of filament. The stimulus was applied to the extent of slightly bending in the direction perpendicular to the plantar surface, and the rats were stimulated with a filament with lower or higher bending force, depending on with and without reaction,
This experiment was conducted to investigate the analgesic effects of compound treatment at two different doses (10 mg/kg and 30 mg/kg) in a diabetic peripheral neuropathic pain model of rats induced by streptozotocin (STZ).
Diabetes was induced by 0.5 ml injection of streptozotocin (60 mg/kg) dissolved in citrate buffer (pH=6) into the tail vein of the rat. Animals were placed under a red lamp before injection and locked in a restraint device for administration.
In a streptozotocin (STZ)-induced diabetic peripheral neuropathic pain rat model, diabetic peripheral neuropathy was induced between 14 and 24 days after injection of STZ through the tail blood vessel of the rat. Blood glucose levels (BGL) of all animals on day 3 of the test were used to determine whether diabetes was induced, and on day 14, animals showing signs of mechanical allodynia by von Frey test were tested for BGL on day 14 and 23 of the experiment (FIG. 1).
After the experiment, all animals were euthanized with CO2.
(§3) Each experimental group was compared with the negative control group by using one-way ANOVA and Tukey […] post-test (Prism® GraphPad).

Assay [2] deals with taxol-induced peripheral neuropathy model (mechanical allodynia). The assay is described as follows: von Frey test of mechanical allodynia in taxol-induced peripheral neuropathy rat model. In kind it is in vivo, rat (Sprague-Dawley). On the procedure:
as §1
as §2, with “reaction.” for “reaction,”
To induce peripheral neuropathy, 2 mg/kg of taxol—which is an anticancer agent commonly used for the treatment of solid cancers—was intraperitoneally (IP) administered at a dose of 0.5 ml/kg on days 1, 3, 5, 7 and 9. To confirm the induction of allodynia, von Frey test was used, and in the study only animals having […] or less of average pain threshold of hind paws were included.
On day 13 of the experiment, only animals—in which allodynia was verified by von Frey test—were selected as experimental groups, Test Compounds (10 mg/kg and 30 mg/kg) and vehicle as the negative control were orally administered 2 hours before the pain test on day 13 and day 14. Morphine (5 mg/kg) as the positive control was administered 30 minutes prior to the pain test by intraperitoneal administration on day 13 and day 14 of the experiment. After the experiment, all animals were euthanized with CO2.
as §3

For the compound `NC(=O)O[C@@H](Cn1ncnn1)c1ccccc1Cl` [Test Compound], the “pain reduction compared to the negative control” value in assay [1] (10 mg/kg, efficacy similar to 150 mg/kg of gabapentin) is given as about 75%. Further, the “allodynia suppressive effect compared to vehicle” value was “a tendency of allodynia suppressive effect” in assay [1] (day 14, 10 mg/kg PO); “a tendency of allodynia suppressive effect” in assay [1] (day 14, 30 mg/kg PO); “significant allodynia suppressive effect” in assay [1] (day 24, 10 mg/kg PO); “significant allodynia suppressive effect” in assay [1] (day 24, 30 mg/kg PO). The “inhibition of allodynia, pre-treatment vs. post-treatment” value in assay [1] (day 14, 10 mg/kg PO) was “the induction of allodynia was significantly inhibited”; in assay [1] (day 14, 30 mg/kg PO), “the induction of allodynia was significantly inhibited”; in assay [1] (day 24, 10 mg/kg PO) it was “the induction of allodynia was significantly inhibited”; in assay [1] (day 24, 30 mg/kg PO) it was “the induction of allodynia was significantly inhibited”. For the same compound, the “mean bending force (paw withdrawal threshold, von Frey)” value in assay [1] (day 14, 2 hours after administration, 10 mg/kg PO, vehicle 34.50±6.61 g) came out at 46.09 ± 4.48 g; in assay [1] (day 24, after administration, daily dosing from day 14, 10 mg/kg PO, vehicle 22.85±3.86 g) it was 44.36 ± 3.63 g. The “bending force before administration” value stood at 25.18 ± 2.96 g in assay [1] (after daily dosing from day 14, 10 mg/kg PO) and 23.55 ± 2.52 g in assay [1] (after daily dosing from day 14, 30 mg/kg PO). Besides, the “inhibitory effect on the induction of allodynia compared to the vehicle-administration group” value is “a tendency to inhibit the induction of allodynia” in assay [2] (day 13, 10 mg/kg orally, 2 hours before the pain test); “a significant inhibitory effect on the induction of allodynia” in assay [2] (day 13, 30 mg/kg orally, 2 hours before the pain test); “a tendency to inhibit the induction of allodynia” in assay [2] (day 14, 10 mg/kg orally, 2 hours before the pain test); “a significant inhibitory effect on the induction of allodynia” in assay [2] (day 14, 30 mg/kg orally, 2 hours before the pain test).
`CN1CC[C@]23c4c5ccc(O)c4O[C@H]2[C@@H](O)C=C[C@H]3[C@H]1C5` [morphine, Morphine, reference compound]: the “inhibitory effect on the induction of allodynia compared to the vehicle-administration group” value in assay [2] (day 13, 5 mg/kg IP, 30 minutes prior to the pain test) is given as “a significant inhibitory effect on the induction of allodynia”; in assay [2] (day 14, 5 mg/kg IP, 30 minutes prior to the pain test), “a significant inhibitory effect on the induction of allodynia”.
As to `NCC1(CC(=O)O)CCCCC1` [gabapentin, reference compound], the “allodynia suppressive effect compared to vehicle” value in assay [1] (day 14, 150 mg/kg IP) was “no significant allodynia suppressive effect”; in assay [1] (day 24, 150 mg/kg IP), “significant allodynia suppressive effect”. In addition, the “inhibition of allodynia, pre-treatment vs. post-treatment” value in assay [1] (day 14, 150 mg/kg IP) was “the induction of allodynia was significantly inhibited”; in assay [1] (day 24, 150 mg/kg IP), “the induction of allodynia was significantly inhibited”. The “mean bending force (paw withdrawal threshold, von Frey)” value in assay [1] (day 14, 2 hours after administration, 150 mg/kg IP, vehicle 34.50±6.61 g) turned out to be 51.85 ± 4.91 g; in assay [1] (day 24, after administration, daily dosing from day 14, 150 mg/kg IP, vehicle 22.85±3.86 g), 45.30 ± 4.63 g. Besides, in assay [1] (after daily dosing from day 14, 150 mg/kg IP), the “bending force before administration” value was determined as 25.50 ± 3.95 g.
